Measured values reported in BigSolDB 2.1.

CC(N)=S
Settings	solubility (mole fraction)
in 2-butanone, 272.85 K	0.137
in 2-butanone, 279.35 K	0.157
in 2-butanone, 282.55 K	0.167
in 2-butanone, 287.95 K	0.185
in 2-butanone, 293.35 K	0.205
in 2-butanone, 297.85 K	0.223
in 2-butanone, 303.05 K	0.244
in 2-butanone, 308.55 K	0.268
in 2-butanone, 313.15 K	0.289
in 2-butanone, 318.05 K	0.312
in 2-butanone, 323.95 K	0.343
in 2-pentanone, 272.85 K	0.111
in 2-pentanone, 279.35 K	0.127
in 2-pentanone, 282.55 K	0.136
in 2-pentanone, 287.95 K	0.152
in 2-pentanone, 293.35 K	0.169
in 2-pentanone, 297.85 K	0.183
in 2-pentanone, 303.05 K	0.202
in 2-pentanone, 308.55 K	0.222
in 2-pentanone, 313.15 K	0.24
in 2-pentanone, 318.05 K	0.26
in 2-pentanone, 323.95 K	0.286
in acetone, 272.85 K	0.144
in acetone, 279.35 K	0.165
in acetone, 282.55 K	0.176
in acetone, 287.95 K	0.195
in acetone, 293.35 K	0.216
in acetone, 297.85 K	0.234
in acetone, 303.05 K	0.257
in acetone, 308.55 K	0.282
in acetone, 313.15 K	0.304
in acetone, 318.05 K	0.329
in acetone, 323.95 K	0.36
in acetonitrile, 272.85 K	0.0478
in acetonitrile, 279.35 K	0.061
in acetonitrile, 282.55 K	0.0685
in acetonitrile, 287.95 K	0.0828
in acetonitrile, 293.35 K	0.0993
in acetonitrile, 297.85 K	0.115
in acetonitrile, 303.05 K	0.136
in acetonitrile, 308.55 K	0.16
in acetonitrile, 313.15 K	0.184
in acetonitrile, 318.05 K	0.211
in acetonitrile, 323.95 K	0.249
in ethanol, 273.15 K	0.064
in ethanol, 277.95 K	0.0752
in ethanol, 283.45 K	0.0901
in ethanol, 288.25 K	0.105
in ethanol, 293.25 K	0.122
in ethanol, 298.15 K	0.141
in ethanol, 302.35 K	0.159
in ethanol, 308.05 K	0.186
in ethanol, 313.35 K	0.214
in ethanol, 318.25 K	0.243
in ethanol, 323.15 K	0.274
in ethyl acetate, 272.85 K	0.0646
in ethyl acetate, 279.35 K	0.0773
in ethyl acetate, 282.55 K	0.0843
in ethyl acetate, 287.95 K	0.0969
in ethyl acetate, 293.35 K	0.111
in ethyl acetate, 297.85 K	0.124
in ethyl acetate, 303.05 K	0.14
in ethyl acetate, 308.55 K	0.158
in ethyl acetate, 313.15 K	0.175
in ethyl acetate, 318.05 K	0.194
in ethyl acetate, 323.95 K	0.219
in ethyl formate, 272.85 K	0.0427
in ethyl formate, 279.35 K	0.0536
in ethyl formate, 282.55 K	0.0596
in ethyl formate, 287.95 K	0.0711
in ethyl formate, 293.35 K	0.0843
in ethyl formate, 297.85 K	0.0965
in ethyl formate, 303.05 K	0.113
in ethyl formate, 308.55 K	0.131
in ethyl formate, 313.15 K	0.149
in ethyl formate, 318.05 K	0.17
in ethyl formate, 323.95 K	0.198
in isobutanol, 273.15 K	0.0323
in isobutanol, 277.95 K	0.0401
in isobutanol, 283.45 K	0.0508
in isobutanol, 288.25 K	0.0621
in isobutanol, 293.25 K	0.0761
in isobutanol, 298.15 K	0.0922
in isobutanol, 302.35 K	0.108
in isobutanol, 308.05 K	0.133
in isobutanol, 313.35 K	0.16
in isobutanol, 318.25 K	0.189
in isobutanol, 323.15 K	0.223
in isopentanol, 273.15 K	0.0333
in isopentanol, 277.95 K	0.0415
in isopentanol, 283.45 K	0.0528
in isopentanol, 288.25 K	0.0648
in isopentanol, 293.25 K	0.0796
in isopentanol, 298.15 K	0.0968
in isopentanol, 302.35 K	0.114
in isopentanol, 308.05 K	0.141
in isopentanol, 313.35 K	0.171
in isopentanol, 318.25 K	0.203
in isopentanol, 323.15 K	0.239
in isopropanol, 273.15 K	0.0439
in isopropanol, 277.95 K	0.0532
in isopropanol, 283.45 K	0.066
in isopropanol, 288.25 K	0.0792
in isopropanol, 293.25 K	0.0949
in isopropanol, 298.15 K	0.113
in isopropanol, 302.35 K	0.13
in isopropanol, 308.05 K	0.158
in isopropanol, 313.35 K	0.186
in isopropanol, 318.25 K	0.216
in isopropanol, 323.15 K	0.251
in methanol, 273.15 K	0.0894
in methanol, 277.95 K	0.104
in methanol, 283.45 K	0.123
in methanol, 288.25 K	0.141
in methanol, 293.25 K	0.163
in methanol, 298.15 K	0.186
in methanol, 302.35 K	0.208
in methanol, 308.05 K	0.241
in methanol, 313.35 K	0.275
in methanol, 318.25 K	0.31
in methanol, 323.15 K	0.348
in methyl acetate, 272.85 K	0.0603
in methyl acetate, 279.35 K	0.074
in methyl acetate, 282.55 K	0.0815
in methyl acetate, 287.95 K	0.0957
in methyl acetate, 293.35 K	0.112
in methyl acetate, 297.85 K	0.126
in methyl acetate, 303.05 K	0.145
in methyl acetate, 308.55 K	0.167
in methyl acetate, 313.15 K	0.187
in methyl acetate, 318.05 K	0.211
in methyl acetate, 323.95 K	0.242
in n-butanol, 273.15 K	0.0417
in n-butanol, 277.95 K	0.0524
in n-butanol, 283.45 K	0.0674
in n-butanol, 288.25 K	0.0833
in n-butanol, 293.25 K	0.103
in n-butanol, 298.15 K	0.126
in n-butanol, 302.35 K	0.149
in n-butanol, 308.05 K	0.186
in n-butanol, 313.35 K	0.227
in n-butanol, 318.25 K	0.271
in n-butanol, 323.15 K	0.321
in n-pentanol, 273.15 K	0.0507
in n-pentanol, 277.95 K	0.0598
in n-pentanol, 283.45 K	0.0716
in n-pentanol, 288.25 K	0.0835
in n-pentanol, 293.25 K	0.0975
in n-pentanol, 298.15 K	0.113
in n-pentanol, 302.35 K	0.127
in n-pentanol, 308.05 K	0.149
in n-pentanol, 313.35 K	0.172
in n-pentanol, 318.25 K	0.196
in n-pentanol, 323.15 K	0.222
in n-propanol, 273.15 K	0.0503
in n-propanol, 277.95 K	0.0608
in n-propanol, 283.45 K	0.0748
in n-propanol, 288.25 K	0.0891
in n-propanol, 293.25 K	0.106
in n-propanol, 298.15 K	0.126
in n-propanol, 302.35 K	0.144
in n-propanol, 308.05 K	0.173
in n-propanol, 313.35 K	0.203
in n-propanol, 318.25 K	0.236
in n-propanol, 323.15 K	0.272
